Test results published in paper PMC12876990, “Targeting secreted PLA2 interactions with EGFR and vimentin to arrest prostate tumour growth” (Cell Death & Disease, 2025).
Peptide text beside a SMILES is read from it.

Key:
[1] = biological target: T1, hGIIA/vimentin interaction (Homo sapiens, UniProt P08670); assay: Enzyme immunoassay of hGIIA binding to vimentin coil 2; conditions: 0.1-100 µM
T1 construct: Purified vimentin fragments (full length or coil 2) were seeded to a 96-well microplate at 15 μg/mL; hGIIA purified in house from conditioned medium of CHO cell line 2B1
T1 sequence (P08670 269-407 limits assumed): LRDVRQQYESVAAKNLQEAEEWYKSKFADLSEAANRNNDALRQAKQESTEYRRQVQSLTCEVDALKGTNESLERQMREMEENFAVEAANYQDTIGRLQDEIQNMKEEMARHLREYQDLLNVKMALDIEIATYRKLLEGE
Procedure: Prior to assay, hGIIA antibody 4A1 was conjugated to alkaline phosphatase (4A1-AP), produced using the lightning-link conjugation kit (ab102850, Abcam) as per the manufacturer’s instructions.
Purified vimentin fragments (full length or coil 2) were seeded to a 96-well microplate at 15 μg/mL with a 100 μL/well volume. After an overnight incubation at 4 °C, the plate was emptied. Each well was then blocked overnight at 4 °C with 200 μL of 1% BSA in PBS. The plate was emptied and washed with PBST (PBS + 0.05% Tween20). hGIIA solution of 100 ng/mL in PBS with 0.1% BSA was prepared with and without inhibitors c2, Withaferin A and LY311727 in DMSO with concentrations 0.1-100 µM. hGIIA working solution with 0.4% DMSO served as a positive control and PBS with 0.1% BSA served as a negative control. A 100 μL volume of each prepared hGIIA-inhibitor mixture was added to wells in triplicate and incubated at 37 °C for two hours. The plate was washed twice with PBST, then incubated with the 4A1-AP conjugate at 1 μg/mL 0.1% BSA in PBS and incubated for one hour at 37 °C. Plates were then emptied and washed three times with PBST, followed by washing twice with carbonate buffer (8 mM Na2CO3, 36 mM NaHCO3, 2 mM MgCl2, pH 9.8), before incubation with AP substrate p-nitro-phenyl phosphate (PNPP) powder at 1 mg/mL concentration in carbonate buffer. The plate was incubated at 37 °C for 60 mins then absorbance was read at 405 nm by a Spectramax M2 plate reader. All washes were a 200 µL/well volume.

[2] = system: castrate-resistant PCa; parameters: method as in PMID 15470213; conditions: cited from earlier work
[3] = Pharmacokinetics of tritiated cF and c2 in BALB/c mice; assay type: in vivo
Procedure: All animal studies were performed according to the guidelines for the ethical use of animals published by the National Health and Medical Research Council of Australia. Mouse pharmacokinetic studies were conducted with approval from the Garvan Institute Animal Ethics Committee (approval #02/21). cF and c2 were radioactively labelled with tritium by catalytic saturation of peptide analogues containing dehydroleucine (Sibtech Inc.), yielding high specific activity (50–60 Ci/mmol) peptides. Their identity was confirmed by three separate analytical methods prior to delivery. Mice (BALB/c, n = 4 per timepoint) were administered a single dose of peptide by the routes and times indicated. Animals were then exsanguinated by cardiac puncture under halothane anaesthesia followed by cervical dislocation. Tissues and plasma were stored at −80 °C prior to analysis. For plasma, a known volume of plasma was added to liquid scintillant (Ultima Gold, Perkin Elmer). For tissues, a known amount of tissue (50–100 mg) was incubated in NaOH (1 mL, 1 M) overnight at room temperature. The solutions were then bleached with disodium EDTA (100 µl, 0.1%) and hydrogen peroxide (300 µl, 30%) and incubated at 50 °C for one hour. The peptide content of plasma and tissues was determined by liquid scintillation counting. The stability of the peptides following administration to animals was evaluated by thin-layer chromatography of tissue-extracted peptide relative to peptide prior to injection (Fig. S2c).

[4] = Toxicity and serum enzyme levels in PCa xenograft model mice; assay type: in vivo
Procedure: Fig. 1 Derived from the structure of hGIIA, cF and c2 are orally absorbed, cell permeable and non-toxic. a Structure of hGIIA showing disulphide bonds (yellow) and the location of the peptide sequence ^70FLSYK^74 (cyan), which was cyclised to produce pentapeptide cF, then modified to produce c2. b Plasma concentrations of tritiated cF (red) and c2 (blue) following subcutaneous (sc) administration (circles) or oral (po) administration (squares) at 5 mg/kg to BALB/c mice (mean ± SE, n = 4 per time point). Tissue concentrations of c cF and d c2 following sc administration determined in the liver (blue) and kidney (brown) (mean ± SE). Dashed lines indicate estimated background levels of tritium in tissues due to tissue blood content (10% of peak plasma concentration). e–i Following po administration of c2 at 100 mg/kg to male rats (n = 5 per group), levels of c2 were measured in e plasma, f kidney, g faeces, h urine and i liver at timepoints indicated via LCMS/MS (mean ± SE). j Serum enzyme levels of markers of kidney function (creatinine), liver damage (AST and ALT) and heart damage (CK) in PCa xenograft model mice in response to treatment with vehicle (po, 3 x weekly for 6.1 ± 1.6 weeks), cF (10 mg/kg, po, 3 x weekly for 5.4 ± 0.9 weeks) or c2 (10 mg/kg, po, 3 x weekly for 4.8 ± 0.8 weeks) (n = 4, mean ± SE). Data were obtained by the South Eastern Area Laboratory Services Pathology Laboratory at Prince of Wales Hospital, Randwick, Australia. k PCa cell lines LNCaP, PC-3, and DU145 cells incubated with 100 µM c2 (green) for 24 hours with DAPI (blue), scale bar 10 µm (representative cells of n = 3 biological replicates, 5 cells per replicate).
A key failing of previous enzymatic inhibitors of hGIIA was toxicity, resulting in increased incidence of myocardial infarction in a phase III clinical trial. Thus, the toxicity profile of novel hGIIA inhibitors is critically important in evaluating new inhibitors. […] Extensive histopathology was performed on all animals in the control and high dose groups sacrificed on day 29, with no difference observed between the treated groups and the vehicle control group by any measure. […] In light of the toxicity associated with the myocardial infarction study, data from this c2 toxicity study relevant to heart toxicity are shown in Table 1. Heart wet weight was not affected by either low or high dose relative to vehicle, indicating the compound has no significant pro-hypertrophy effect at these doses. The lack of effect of c2 on gross necropsy or histopathology scores also supports the preclinical safety of the compound in the heart. Importantly, c2 has no effect on serum potassium levels or the Na/K ratio, since hypokalemia (low potassium) is highly arrythmogenic. […] It is of interest also that serum alanine transaminase is unaffected by c2 at the doses tested, since this marker was raised three-fold over the normal range in 6.3-fold more patients on varespladib than placebo in the VISTA acute coronary syndrome trial of this sPLA2 inhibitor [13].

[5] = system: LNCaP-luc xenograft tumours; assay: Androgen-sensitive xenograft model; assay type: in vivo, BALB/c nu/nu mice; conditions: cF 2 mg/kg po daily
Procedure: BALB/c nu/nu mice (which express murine hGIIA) (n = 13 per group) were injected subcutaneously with 1 × 10^6 luciferase-tagged LNCaP cells (LNCaP-luc) in RPMI 5% FBS/Matrigel (1:1). Subcutaneous tumours (> 65.5 mm^3), in mice randomised to […], were treated by gavage with either vehicle (saline, 1% dimethylformamide (DMF), po, daily) cF (2 mg/kg po, daily) or c2 (0.1 mg/kg, thrice weekly). Mouse weight and tumour diameter, ((d1) and at 90 degrees to d1 (d2) measured with calipers) were recorded twice weekly. Diameter measurements were used to calculate tumour volume; Vol. = π/6 (d1.d2)^3/2, with treatments blinded to experimentalists. Animals were treated for 8-10 weeks unless culled due to tumour volume reaching 15 x 15 mm (1768 mm^3). End of study plasma PSA levels were measured by ELISA. Bioluminescence images were obtained weekly using the IVIS® Lumina (Perkin-Elmer). D-Luciferin, Firefly, potassium salt (150 mg/kg), (Gold Biotechnology Inc.) substrate was administered intraperitoneally prior to imaging. Images were acquired after 10 min with an image time of 60 s, medium binning, F/Stop=1. Images were quantified using the Living Image software (Perkin-Elmer).
(§1) Tumours were fixed with 10% neutral buffered formalin and stored in 70% ethanol, then paraffin-embedded and cut into 5 µm consecutive sections. Samples were deparaffinised with xylene and […] with ethanol using standard protocols, with antigens retrieved by incubating samples in citrate buffer (pH 6) at 95 °C for 20 min. Samples were then incubated with 3% H2O2 in methanol for 30 min to remove endogenous peroxidases, then blocked with 10% goat serum in PBS for 30 min. Samples were then incubated overnight at 4 °C with a range of antibodies: Ki67 (Abcam, ab15580, 1:100), vimentin (1:333), CD31 (Abcam, ab28364, 1:50) and hGIIA (1:100) (Cayman Chemical, Ann Arbour, MI). TUNEL assay (Abcam) was also used to identify apoptosis. Samples were then washed, stained with Rabbit IHC secondary antibody (1:100) (Dako, Glostrup, Denmark) and counterstained with Gill's haematoxylin (1:5) (Dako). Samples were imaged using an M8 digital microscope (PreciPoint GmbH, Freising, Germany) and DAB staining was scored in a blind manner using ImageJ as described previously.

[6] = system: LNCaP-luc xenograft tumours in castrated mice; assay: Castrate-resistant model of PCa; assay type: in vivo, BALB/c nu/nu mice; conditions: cF 2 mg/kg po daily; p = 0.0419
Source text: Mice (BALB/c nu/nu) carrying LNCaP-luc xenograft tumours ( > 65.5 mm^3) were surgically castrated 2.0 - 6.6 weeks post-tumour establishment. Treatment was commenced five weeks post-castration and the study terminated 10 weeks post-treatment commencement.

[7] = system: PC-3M-luc xenograft tumours; assay: Androgen-receptor independent xenograft model; assay type: in vivo, BALB/c nu/nu mice
Procedure: Mice (BALB/c nu/nu) carrying luciferase-tagged PC-3M cells (PC-3M-luc) were each injected sc with 1 × 10^6 cells suspended in RPMI culture medium. […] Tumour volume and animal weights were measured twice weekly.
as §1

[8] = system: hGIIA; conditions: cited from earlier work
[9] = system: fibroblast-like synoviocytes derived from patients with rheumatoid arthritis; conditions: cited from earlier work
[10] = cited from earlier work

SMILES: CC1=C(CO)C(=O)O[C@@H]([C@@H](C)[C@H]2CC[C@H]3[C@@H]4C[C@H]5O[C@]56[C@@H](O)C=CC(=O)[C@]6(C)[C@H]4CC[C@]23C)C1 [withaferin A]
- inhibition of the hGIIA/vimentin interaction [1]: did not inhibit

SMILES: CCc1c(CC(N)=O)c2cc(OCCCP(=O)(O)O)ccc2n1Cc1ccccc1 [LY311727]
- inhibition of the hGIIA/vimentin interaction [1]: did not inhibit

SMILES: CC(=O)O[C@@]12CO[C@@H]1C[C@H](O)[C@@]1(C)C(=O)[C@H](O)C3=C(C)[C@@H](OC(=O)[C@H](O)[C@@H](NC(=O)OC(C)(C)C)c4ccccc4)C[C@@](O)([C@@H](OC(=O)c4ccccc4)[C@H]21)C3(C)C [docetaxel]
- tumour response [2]: 12%

SMILES: CC(C)C[C@@H]1NC(=O)[C@H](Cc2ccccc2)NC(=O)[C@H](CCCNC(=N)N)NC(=O)[C@H](Cc2ccc(O)cc2)NC(=O)[C@H](CO)NC1=O [cF, cyclo-(Phe-Leu Ser-Tyr-Arg)] (cyclo(FLSYR))
- liver and kidney concentrations relative to c2 ([3]; 5 mg/kg): ~ 10 fold
- plasma concentration relative to c2 ([3]; 5 mg/kg, sc or po): ~ 10 fold
- oral bioavailability (in words) ([3]; sc and po administration): orally bioavailable
- oral bioavailability relative to sc delivery (AUC analysis) ([3]; tritiated peptide 5 mg/kg, po vs sc, at 16 hours): ~20%
- serum creatinine, aspartate aminotransferase, alanine aminotransferase, creatine kinase levels ([4]; 10 mg/kg po thrice weekly): no significant changes
- damage to organs ([4]; 10 mg/kg thrice weekly for 10 weeks): no observable damage to organs
- gross toxicity ([4]; max dosages of 10 mg/kg thrice weekly for 10 weeks): No gross toxicity
- tumour volume ([5]; ten weeks, p = 0.0229): significant suppression
- PSA levels ([5]; p = 0.0158): significantly reduced
- tumour weight ([5]; p = 0.0235): significant suppression
- luciferase signal ([5]; p = 0.0284): reduced
- relative tumour volume from time 0 at 10 weeks [6]: significantly reduced
- increase of TUNEL signal ([7]; cF): not seen
- proliferative marker Ki67 relative to control ([7]; cF): significant increase
- growth of tumours relative to vehicle controls ([7]; cF 5 mg/kg daily po, p < 0.05): significantly slowed the growth of tumours
- animals surviving until study termination at 6 months ([7]; cF daily): 13%
- potency in the inhibition of hGIIA catalytic activity, less than other hGIIA inhibitors [8]: ~ 1000 fold
- synthesis of exogenous hGIIA-mediated prostaglandin (PG) [9]: suppress

SMILES: CCc1c(C(=O)C(N)=O)c2c(OCC(=O)O)cccc2n1Cc1ccccc1 [varespladib]
- patients with ALT raised three-fold over the normal range, varespladib vs placebo [10]: 6.3 fold
